Data reported in patent publication US11787762B2, “Tetralin and tetrahydroquinoline compounds as inhibitors of HIF-2alpha” (ARCUS BIOSCIENCES, INC., priority 2020, dated 2023).

Key:
[1] = target: T1, HIF-2α (Homo sapiens, UniProt Q99814); assay: HIF-2α luciferase reporter assay in HIF-Luc-786-O cells; assay type: cell-based; settings: Table 3, 20 hours incubation
T1 construct: host or cells: 786-O cells stably transduced with Cignal Lenti HIF Luc Reporter (only the reporter was introduced, not HIF-2α)
T1 sequence (Q99814 whole entry): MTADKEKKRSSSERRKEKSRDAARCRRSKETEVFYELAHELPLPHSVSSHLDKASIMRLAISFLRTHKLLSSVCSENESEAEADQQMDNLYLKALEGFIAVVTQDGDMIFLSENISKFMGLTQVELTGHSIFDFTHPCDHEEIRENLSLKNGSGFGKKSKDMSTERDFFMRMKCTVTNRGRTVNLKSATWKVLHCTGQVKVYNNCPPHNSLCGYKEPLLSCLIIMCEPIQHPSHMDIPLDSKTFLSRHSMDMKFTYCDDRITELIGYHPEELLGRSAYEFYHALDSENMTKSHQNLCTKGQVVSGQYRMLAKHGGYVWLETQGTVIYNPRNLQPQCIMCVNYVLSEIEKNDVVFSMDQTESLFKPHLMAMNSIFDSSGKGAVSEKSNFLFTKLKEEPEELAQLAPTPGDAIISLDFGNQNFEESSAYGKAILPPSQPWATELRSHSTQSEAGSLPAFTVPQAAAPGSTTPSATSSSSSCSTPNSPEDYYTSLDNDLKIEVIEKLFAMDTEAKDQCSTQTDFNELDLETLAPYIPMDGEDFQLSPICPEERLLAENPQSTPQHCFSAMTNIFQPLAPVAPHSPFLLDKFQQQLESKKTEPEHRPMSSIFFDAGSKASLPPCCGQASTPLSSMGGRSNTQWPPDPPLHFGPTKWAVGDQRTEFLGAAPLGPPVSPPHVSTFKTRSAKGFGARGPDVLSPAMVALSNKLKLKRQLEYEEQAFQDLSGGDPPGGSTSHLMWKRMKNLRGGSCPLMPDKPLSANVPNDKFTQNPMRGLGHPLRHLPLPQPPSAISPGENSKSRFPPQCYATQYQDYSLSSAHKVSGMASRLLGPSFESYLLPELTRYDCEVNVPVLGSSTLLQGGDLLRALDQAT
Procedure, shortened: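 Luminescence (ONE-Glo) read after 20 h compound incubation, top concentration 50 uM, 1% DMSO, 20,000 HIF-Luc-786-O cells per well. Activity scaled between DMSO maximum and no-cell baseline; four-parameter dose-response fits yielded IC50.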

[2] = target: T2, Histidine tagged HIF-2α protein containing PAS-B domain (240-350) (Homo sapiens, UniProt Q99814); assay: HIF-2α Scintillation Proximity Assay (SPA) binding assay; settings: Table 3; 50 nM HIF-2α protein, 25 nM 3H-tracer
T2 construct: HIF-2α protein containing PAS-B domain (240-350); made in house
T2 sequence (Q99814 240-350): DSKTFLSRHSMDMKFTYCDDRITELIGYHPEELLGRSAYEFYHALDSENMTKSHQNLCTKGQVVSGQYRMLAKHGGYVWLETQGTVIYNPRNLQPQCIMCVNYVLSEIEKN
Procedure, shortened: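 His-tagged HIF-2α PAS-B (240-350), 50 nM final, preincubated with compound 1 h at room temperature in 25 mM Tris-HCl pH 7.4, 150 mM NaCl, 0.15% BSA, 0.001% Tween 20, 2% DMSO. Copper-chelate SPA beads (3 ug/well, 45 min) and 25 nM tritiated N-(3-chlorophenyl)-4-nitro-2,1,3-benzoxadiazol-5-amine tracer followed; IC50 from four-parameter fits.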

| SMILES | IC50 [1] | IC50 [2] |
| --- | --- | --- |
| Cc1cn[nH]c1-c1ccc([C@H]2CC[C@H](F)c3cc(F)cc(C#N)c32)c2c1[C@H](O)C(F)(F)C2 [Example 154, (5S,8R)-8-[(1S)-2,2-difluoro-1-hydroxy-7-(4-methyl-1H-pyrazol-5-yl)-1,3-dihydroinden-4-yl]-3,5-difluoro-5,6,7,8-tetrahydronaphthalene-1-carbonitrile] | < 100 nM | < 100 nM |
| Cc1ncccc1-c1ccc([C@H]2CC[C@H](F)c3cc(F)cc(C#N)c32)c2c1[C@H](O)C(F)(F)C2 [Example 159, (5S,8R)-8-[(1S)-2,2-difluoro-1-hydroxy-7-(2-methylpyridin-3-yl)-1,3-dihydroinden-4-yl]-3,5-difluoro-5,6,7,8-tetrahydronaphthalene-1-carbonitrile] | < 100 nM | < 100 nM |
| Cc1ncsc1-c1ccc([C@H]2CC[C@H](F)c3cc(F)cc(C#N)c32)c2c1[C@H](O)C(F)(F)C2 [Example 167, (5S,8R)-8-[(1S)-2,2-difluoro-1-hydroxy-7-(4-methyl-1,3-thiazol-5-yl)-2,3-dihydro-1H-inden-4-yl]-3,5-difluoro-5,6,7,8-tetrahydronaphthalene-1-carbonitrile] | < 100 nM | < 100 nM |
| N#Cc1cc(F)cc2c1[C@@H](c1ccc(-c3cccnc3CF)c3c1CC(F)(F)[C@H]3O)CC[C@@H]2F [Example 173] | < 100 nM | < 100 nM |
| Cn1ncnc1-c1ccc([C@H]2CC[C@H](F)c3cc(F)cc(C#N)c32)c2c1[C@H](O)C(F)(F)C2 [Example 174, (5S,8R)-8-[(1S)-2,2-difluoro-1-hydroxy-7-(2-methyl-1,2,4-triazol-3-yl)-1,3-dihydroinden-4-yl]-3,5-difluoro-5,6,7,8-tetrahydronaphthalene-1-carbonitrile] | < 100 nM | < 100 nM |
| CS(=O)(=O)c1c(Cl)cc([C@H]2CC[C@H](F)c3cc(F)cc(C#N)c32)c2c1[C@H](O)[C@H](F)C2 [Example 213, (5S,8R)-8-[(1S,2R)-6-Chloro-2-fluoro-1-hydroxy-7-methylsulfonyl-2,3-dihydro-1H-inden-4-yl]-3,5-difluoro-5,6,7,8-tetrahydronaphthalene-1-carbonitrile] | < 100 nM | < 100 nM |
| CS(=O)(=O)c1ccc([C@H]2C[C@H](F)[C@H](F)c3cc(F)cc(C#N)c32)c2c1[C@H](O)[C@H](F)C2 [Example 215, (5R,6S,8R)-3,5,6-trifluoro-8-[(1S,2R)-2-fluoro-1-hydroxy-7-methanesulfonyl-2,3-dihydro-1H-inden-4-yl]-5,6,7,8-tetrahydronaphthalene-1-carbonitrile] | < 100 nM | < 100 nM |
| Cn1cncc1-c1ccc([C@H]2CC[C@H](F)c3cc(F)cc(C#N)c32)c2c1[C@H](O)C(F)(F)C2 [Example 240, (5S,8R)-8-[(1S)-2,2-difluoro-1-hydroxy-7-(3-methylimidazol-4-yl)-1,3-dihydroinden-4-yl]-3,5-difluoro-5,6,7,8-tetrahydronaphthalene-1-carbonitrile] | < 100 nM | < 100 nM |
| Cc1cnccc1-c1ccc([C@H]2CC[C@H](F)c3cc(F)cc(C#N)c32)c2c1[C@H](O)C(F)(F)C2 [Example 242, (5S,8R)-8-[(1S)-2,2-difluoro-1-hydroxy-7-(3-methylpyridin-4-yl)-2,3-dihydro-1H-inden-4-yl]-3,5-difluoro-5,6,7,8-tetrahydronaphthalene-1-carbonitrile] | < 100 nM | < 100 nM |

More lines, now with the values ahead:

| IC50 [1] | IC50 [2] | SMILES |
| --- | --- | --- |
| < 100 nM | < 100 nM | Cn1nccc1-c1ccc([C@H]2CC[C@H](F)c3cc(F)cc(C#N)c32)c2c1[C@H](O)[C@H](F)C2 [Example 157, (5S,8R)-3,5-difluoro-8-[(1S,2R)-2-fluoro-1-hydroxy-7-(2-methylpyrazol-3-yl)-2,3-dihydro-1H-inden-4-yl]-5,6,7,8-tetrahydronaphthalene-1-carbonitrile] |
| < 100 nM | < 100 nM | N#Cc1ccccc1-c1ccc([C@H]2CC[C@H](F)c3cc(F)cc(C#N)c32)c2c1[C@H](O)C(F)(F)C2 [Example 162, (5S,8R)-8-[(1S)-7-(2-cyanophenyl)-2,2-difluoro-1-hydroxy-1,3-dihydroinden-4-yl]-3,5-difluoro-5,6,7,8-tetrahydronaphthalene-1-carbonitrile] |
| < 100 nM | < 100 nM | Cc1c(-c2ccc([C@H]3CC[C@H](F)c4cc(F)cc(C#N)c43)c3c2[C@H](O)C(F)(F)C3)cnn1C [Example 166, (5S,8R)-8-[(1S)-7-(1,5-dimethyl-1H-pyrazol-4-yl)-2,2-difluoro-1-hydroxy-2,3-dihydro-1H-inden-4-yl]-3,5-difluoro-5,6,7,8-tetrahydronaphthalene-1-carbonitrile] |
| < 100 nM | < 100 nM | Cc1ccncc1-c1ccc([C@H]2CC[C@H](F)c3cc(F)cc(C#N)c32)c2c1[C@H](O)C(F)(F)C2 [Example 241, (5S,8R)-8-[(1S)-2,2-difluoro-1-hydroxy-7-(4-methylpyridin-3-yl)-2,3-dihydro-1H-inden-4-yl]-3,5-difluoro-5,6,7,8-tetrahydronaphthalene-1-carbonitrile] |
